pIC50: −log10 of the molar value. Read-outs that look alike come from different tables or passages of the source.
Assays:
[1] = tested on: 22RV1 cells; assay: Inhibition of the proliferation of drug-resistant prostate cancer cell 22RV1 (CCK-8); format: cell-based; conditions: 22RV1 cells (enzalutamide-resistant), same method
Experimental: (1) Experimental materials and instruments: LNCaP/AR cell line and 22RV1 cell line (provided by Sichuan Kangcheng Biotechnology Co., Ltd.) Fetal bovine serum FBS (Gibco, Cat. No. 10099-141) 0.01M PBS (Biosharp, Cat. No. 162262) RIPM1640 medium (Hyclone, Cat. No. 308090.01) Penicillin-Streptomycin (Hyclone, Cat. No. SV30010) Cell counting kit-8 (Signalway Antibody, Cat. No. CP002) DMSO (Sigma, Cat. No. D5879) Centrifuge Tube, 15 ml (Excell Bio, Cat. No. CS015-0001) Cell Culture Dish, (Excell Bio, Cat. No. CS016-0128) 96-well cell culture plate (Corning, Cat. No. 3599) Microplate reader (Thermo Multiskan MK3 type)
a. Preparation of Buffer Cell culture medium: RIPM1640 medium, 10% FBS, 1% Pen Strep: PBS buffer: PBS powder was dissolved in 2 L of ultrapure water and sterilized. b. Experimental Procedures 1) LNCaP/AR cells were subcultured in cell culture media, and then the cells in good growth condition were seeded in a 96-well plate at 80 μL/well (1000 cells/well), and cultured overnight in a 37° C., 5% CO2 cell incubator. 2) The drug was prepared into a 10 mM stock solution with dimethyl sulfoxide (DMSO). Prior to use, the stock solution was diluted in a ratio of […] with DMSO, and then diluted at a 3-fold gradient to obtain 9 serial concentrations. Then, each concentration of compound was further diluted in a ratio of 1:200 with the culture medium (to ensure that the DMSO concentration in the culture system was 0.1%), and two wells were set for each concentration. 20 μL of the diluted compound solution was added to the well of the cell culture (with a final concentration of 10 μM, 3.3 μM, 1.1 μM . . . ), and then the plate was gently tapped to thoroughly mix. In addition, the experiment included 3 negative control wells only containing cells and 3 blank control wells only containing culture medium (6 wells were each added with DMSO diluted in a ratio of 1:200 with 20 μL of culture medium). c. Result Detection: 1) After culturing for 6 days, 10 μL of CCK-8 was added to each well, and the plate was further incubated for 1 h in a 37° C., 5% CO2 cell incubator. 2) The absorbance (OD value) was measured at 450 nm with a multifunctional microplate reader. 3) The data was analyzed by the Dose-response-inhibition equation in the software GraphPad Prism5, and the IC50 value was obtained. 2. Biological assay of the inhibition on the proliferation of other drug-resistant prostate cancer cells
The same test method was used to determine the inhibitory activity of the compound according to the present invention against drug-resistant prostate cancer cell 22RV1.

[2] = tested on: LNCaP/AR cells; assay: Inhibition of the proliferation of LNCap/AR cells (CCK-8); format: cell-based; conditions: read-out: LNCap/AR IC50
Procedure, shortened: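 LNCaP/AR cells (1000/well, RPMI1640 + 10% FBS) were treated for 6 days at 37 °C with 9-point 3-fold dilutions from 10 μM final, 0.1% DMSO, in duplicate. Viability was read by CCK-8 absorbance at 450 nm after 1 h, and IC50 came from a dose-response-inhibition fit.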

[3] = 144 h, LNCaP/AR cells, 6 days culture, CCK-8
[4] = LNCaP/AR cells, 6 days culture, CCK-8

Row | SMILES | pIC50 ([1]; Homo sapiens) | pIC50 [2, 3] | pIC50 [1] | pIC50 [2, 4] | pIC50 ([2]; LNCaP/AR, 144 h)
1 | Cc1ccc(-c2c(C)noc2C)cc1N(C[C@H]1CC[C@H](Nc2cc3c(cc2F)CN(C2CCC(=O)NC2=O)C3=O)CC1)c1ccc(C2(C#N)CC2)c(Cl)c1 (stereo partly drawn) [Compound 114] | – | – | 6.30 to 7.00 | 6.30 to 7.00 | –
2 | Cc1ccc(-c2c(C)noc2C)cc1N(CC1CCC(Nc2cc3c(cc2F)C(=O)N(C2CCC(=O)NC2=O)C3)CC1)c1ccc(C2(C#N)CC2)cc1 (stereo not drawn) [Compound 115, 1-(4-((5-(3,5-Dimethylisoxazol-4-yl)-2-methylphenyl)((((1r,4r)-4-((2-(2,6-dioxopiperidin-3-yl)-6-fluoro-1-oxoisoindolin-5-yl)amino)cyclohexyl)methyl)amino)phenyl)cyclopropanecarbonitrile] | – | – | 5.70 to 6.30 | 6.30 to 7.00 | –
3 | Cc1ccc(-c2c(C)noc2C)cc1N(CC1CC2(C1)CN(c1cc3c(cc1F)C(=O)N(C1CCC(=O)NC1=O)C3)C2)c1ccc(C2(C#N)CC2)cc1 (stereo not drawn) [Compound 125, 1-(4-((5-(3,5-dimethylisoxazol-4-yl)-2-methylphenyl)((2-(2-(2-,2,6-dioxopiperidin-3-yl)-6-fluoro-1-oxoisoindolin-5-yl)-2-azaspiro[3.3]heptan-6-yl)methyl)amino)phenyl)cyclopropane-1-carbonitrile] | 5.70 to 6.30 | 5.70 to 6.30 | – | – | –
4 | Cc1ccc(-c2c(C)noc2C)cc1N(CC1CC2(C1)CN(c1cc3c(cc1F)CN(C1CCC(=O)NC1=O)C3=O)C2)c1ccc(C2(C#N)CC2)cc1 (stereo not drawn) [Compound 126, 1-(4-((5-(3,5-dimethylisoxazol-4-yl)-2-methylphenyl)((2-(2-(2-,2,6-dioxopiperidin-3-yl)-6-fluoro-3-oxoisoindolin-5-yl)-2-azaspiro[3.3]heptan-6-yl)methyl)amino)phenyl)cyclopropane-1-carbonitrile] | – | – | < 5.70 | 5.70 to 6.30 | –
5 | Cc1ccc(-c2c(C)noc2C)cc1N(C[C@H]1CC[C@H](CNc2ccc3c(c2)C(=O)N(C2CCC(=O)NC2=O)C3=O)CC1)c1ccc(C#N)c(Cl)c1 (stereo partly drawn) [Compound 132, 2-Chloro-4-((5-(3,5-dimethylisoxazol-4-yl)-2-methylphenyl)(((1r,4r)-4-(((2-(2,6-dioxopiperidin-3-yl)-1,3-dioxoisoindolin-5-yl)amino)methyl)cyclohexyl)methyl)amino)benzonitrile] | 6.30 to 7.00 | – | – | – | < 5.70
6 | Cc1ccc(-c2c(C)noc2C)cc1N(CC1CCC(CNc2ccc3c(c2)CN(C2CCC(=O)NC2=O)C3=O)CC1)c1ccc(C#N)c(Cl)c1 (stereo not drawn) [Compound 133, 2-Chloro-4-((5-(3,5-dimethylisoxazol-4-yl)-2-methylphenyl)((1r,4r)-4-((2-(2,6-dioxopiperidin-3-yl)-1-oxoisoindolin-5-yl)amino)methyl)cyclohexyl)methyl)amino)benzonitrile] | > 7.00 | – | – | – | > 7.00
7 | Cc1ccc(-c2c(C)noc2C)cc1N(CC1CCC(CNc2ccc3c(c2)C(=O)N(C2CCC(=O)NC2=O)C3)CC1)c1ccc(C#N)c(Cl)c1 (stereo not drawn) [Compound 134, 2-Chloro-4-((5-(3,5-dimethylisoxazol-4-yl)-2-methylphenyl)((1r,4r)-4-((2-(2,6-dioxopiperidin-3-yl)-3-oxoisoindolin-5-yl)amino)methyl)cyclohexyl)methyl)amino)benzonitrile] | > 7.00 | – | – | – | 6.30 to 7.00
8 | Cc1ccc(-c2c(C)noc2C)cc1N(C[C@H]1CC[C@H](CNc2cc3c(cc2F)CN(C2CCC(=O)NC2=O)C3=O)CC1)c1ccc(C#N)c(Cl)c1 (stereo partly drawn) [Compound 136] | 6.30 to 7.00 | – | – | – | 5.70 to 6.30

More lines, main results first:

Row | pIC50 ([1]; Homo sapiens) | pIC50 [2, 3] | pIC50 [1] | pIC50 [2, 4] | SMILES | pIC50 ([2]; LNCaP/AR, 144 h)
9 | < 5.70 | < 5.70 | – | – | Cc1ccc(-c2c(C)noc2C)cc1N(CC1CCN(c2cc3c(cc2F)C(=O)N(C2CCC(=O)NC2=O)C3=O)C1)c1ccc(C2(C#N)CC2)cc1 (stereo not drawn) [Compound 107] | –
10 | 5.70 to 6.30 | < 5.70 | – | – | Cc1ccc(-c2c(C)noc2C)cc1N(CCCCOc1ccc2c(c1)C(=O)N(C1CCC(=O)NC1=O)C2=O)c1ccc(C2(C#N)CC2)cc1 (stereo not drawn) [Compound 108, 1-(4-((5-(3,5-Dimethylisoxazol-4-yl)-2-methylphenyl)(4-((2-(2,6-dioxopiperidin-3-yl)-1,3-dioxoisoindolin-5-yl)oxy)butyl)amino)phenyl)cyclopropanecarbonitrile] | –
11 | > 7.00 | > 7.00 | – | – | Cc1ccc(-c2c(C)noc2C)cc1N(CC1CCN(C2CN(c3ccc4c(c3)C(=O)N(C3CCC(=O)NC3=O)C4=O)C2)CC1)c1ccc(C2(C#N)CC2)cc1 (stereo not drawn) [Compound 109, 1-(4-((5-(3,5-Dimethylisoxazol-4-yl)-2-methylphenyl)((1-(1-(2-(2,6-dioxopiperidin-3-yl)-1,3-dioxoisoindolin-5-yl)azetidin-3-yl)piperidin-4-yl)methyl)amino)phenyl)cyclopropanecarbonitrile] | –
12 | < 5.70 | < 5.70 | – | – | Cc1ccc(-c2c(C)noc2C)cc1N(CCOC1(C)CN(c2ccc3c(c2)C(=O)N(C2CCC(=O)NC2=O)C3=O)C1)c1ccc(C2(C#N)CC2)cc1 (stereo not drawn) [Compound 110, 1-(4-((5-(3,5-Dimethylisoxazol-4-yl)-2-methylphenyl)(2-((1-(2-(2,6-dioxopiperidin-3-yl)-1,3-dioxoisoindolin-5-yl)-3-methylazetidin-3-yl)oxy)ethyl)amino)phenyl)cyclopropanecarbonitrile] | –
13 | < 5.70 | < 5.70 | – | – | Cc1ccc(-c2c(C)noc2C)cc1N(CCOC1(C)CN(c2cc3c(cc2F)CN(C2CCC(=O)NC2=O)C3=O)C1)c1ccc(C2(C#N)CC2)cc1 (stereo not drawn) [Compound 112, 1-(4-((5-(3,5-Dimethylisoxazol-4-yl)-2-methylphenyl)(2-((1-(2-(2,6-dioxopiperidin-3-yl)-6-fluoro-3-oxoisoindolin-5-yl)-3-methylazetidin-3-yl)oxy)ethyl)amino)phenyl)cyclopropanecarbonitrile] | –
14 | – | – | < 5.70 | 6.30 to 7.00 | Cc1ccc(-c2c(C)noc2C)cc1N(CC1CCC(Nc2ccc3c(c2)C(=O)N(C2CCC(=O)NC2=O)C3=O)CC1)c1ccc(C2(C#N)CC2)cc1 (stereo not drawn) [Compound 116, 1-(4-((5-(3,5-Dimethylisoxazol-4-yl)-2-methylphenyl)((((1r,4r)-4-((2-(2,6-dioxopiperidin-3-yl)-1,3-dioxoisoindolin-5-yl)amino)cyclohexyl)methyl)amino)phenyl)cyclopropanecarbonitrile] | –
15 | < 5.70 | 6.30 to 7.00 | – | – | Cc1ccc(-c2c(C)noc2C)cc1N(CCCOC1CN(c2ccc3c(c2)C(=O)N(C2CCC(=O)NC2=O)C3=O)C1)c1ccc(C2(C#N)CC2)cc1 (stereo not drawn) [Compound 119, 1-(4-((5-(3,5-dimethylisoxazol-4-yl)-2-methylphenyl)(3-((1-(2-(2,6-dioxopiperidin-3-yl)-1,3-dioxoisoindolin-5-yl)azetidin-3-yl)oxy)propyl)amino)phenyl)cyclopropane-1-nitrile] | –
16 | > 7.00 | 6.30 to 7.00 | – | – | Cc1ccc(-c2c(C)noc2C)cc1N(CCCOC1CN(c2ccc3c(c2)C(=O)N(C2CCC(=O)NC2=O)C3)C1)c1ccc(C2(C#N)CC2)cc1 (stereo not drawn) [Compound 121, 1-(4-((5-(3,5-dimethylisoxazol-4-yl)-2-methylphenyl)(3-((1-(2-(2,6-dioxopiperidin-3-yl)-3-oxoisoindolin-5-yl)azetidin-3-yl)oxy)propyl)amino)phenyl)cyclopropane-1-nitrile] | –
17 | > 7.00 | > 7.00 | – | – | Cc1ccc(-c2c(C)noc2C)cc1N(CCCOC1CN(c2ccc3c(c2)CN(C2CCC(=O)NC2=O)C3=O)C1)c1ccc(C2(C#N)CC2)cc1 (stereo not drawn) [Compound 122, 1-(4-((5-(3,5-dimethylisoxazol-4-yl)-2-methylphenyl)(3-((1-(2-(2,6-dioxopiperidin-3-yl)-1-oxoisoindolin-5-yl)azetidin-3-yl)oxy)propyl)amino)phenyl)cyclopropane-1-nitrile] | –
18 | – | – | > 7.00 | 6.30 to 7.00 | Cc1ccc(-c2c(C)noc2C)cc1N(CCC1CN(c2cc3c(cc2F)C(=O)N(C2CCC(=O)NC2=O)C3=O)C1)c1ccc(C2(C#N)CC2)cc1 (stereo not drawn) [Compound 130, 1-(4-((5-(3,5-dimethylisoxazol-4-yl)-2-methylphenyl)(2-(1-(2-(2,6-dioxopiperidin-3-yl)-6-fluoro-1,3-dioxoisoindolin-5-yl)azetidin-3-yl)ethyl)amino)phenyl)cyclopropane-1-carbonitrile] | –

From patent publication US20220257774A1, “AROMATIC AMINE AR AHD BET TARGETING PROTEIN DEGRADATION CHIMERA COMPOUND AND USE” (HINOVA PHARMACEUTICALS INC., priority 2019, published 2022)
